Reference: patent publication US5977133A, “Pyridone antibiotic with improved safety profile” (priority 1998, dated 1999)
Structures can show the parent of a compound that is named as a salt. Where two headings read alike, the source gives them in different places.

What was measured:
Assay type in all cases: cell-based
S. aureus (CiproS) = test: In vitro MIC, agar dilution; conditions: Staphylococcus aureus
S. aureus (CiproR) = test: In vitro MIC, agar dilution; conditions: Staphylococcus aureus
S. epidermidis (CiproS) = test: In vitro MIC, agar dilution; conditions: Staphylococcus epidermidis
S. epidermidis (CiproR) = test: In vitro MIC, agar dilution; conditions: Staphylococcus epidermidis
S. pneumoniae (PenR) = test: In vitro MIC, agar dilution; conditions: Streptococcus pneumoniae
S. pyogenes = test: In vitro MIC, agar dilution; conditions: Streptococcus pyogenes
E. faecium (CiproS) = test: In vitro MIC, agar dilution; conditions: Enterococcus faecium
E. faecium (CiproR) = test: In vitro MIC, agar dilution; conditions: Enterococcus faecium; E. faecium (CiproR), 2 isolates; read-out: MIC Range
E. faecalis (VanS) = test: In vitro MIC, agar dilution; conditions: Enterococcus faecalis
Enterococcus spp. (VanR) = test: In vitro MIC, agar dilution; conditions: Enterococcus spp. (VanR), 21 isolates
E. coli = test: In vitro MIC, agar dilution; conditions: Escherichia coli, 25 isolates
Protocol: (§1) Each plate was inoculated with 1:100 (or 1:10 for slow-growing strains, primarily Micrococcus and Streptococcus) dilutions of up to 32 different microorganisms, using a Steers replicator block calibrated to deliver approximately 10^4 colony forming units (CFU's). The inoculated plates were incubated at from about 35° C. to about 37 ° C. for approximately 20-24 hours. In addition, a control plate using BHI agar containing no test compound was prepared and incubated at the beginning and at the end of each test. The quinolone antibacterial ciprofloxacin was used as a control ("Cntl").
(§2) The numbers below the microorganism species indicate the nunbers of isolates tested. […] The MIC is defined as the lowest concentration of test compound yielding no growth (a slight haze or sparsely isolated colonies at the inoculum spot) as compared to the growth control containing no test compound.

Salmonella spp. = test: In vitro MIC, agar dilution; conditions: 23 isolates
Protocol: as §1, §2

Shigella spp. = test: microbe, parasite or virus in culture; conditions: read-out: MIC Range
Klebsiella spp. = test: In vitro MIC, agar dilution
C. freundii = test: In vitro MIC, agar dilution; conditions: Citrobacter freundii
P. mirabilis = test: In vitro MIC, agar dilution; conditions: Proteus mirabilis
Providencia spp. = test: In vitro MIC, agar dilution
Enterobacter spp. = test: In vitro MIC, agar dilution
P. aeruginosa (CiproS) = test: In vitro MIC, agar dilution; conditions: Pseudomonas aeruginosa, P. aeruginosa (CiproS), 24 isolates
P. aeruginosa (CiproR) = test: In vitro MIC, agar dilution
B. fragilis = test: In vitro MIC, agar dilution
C. difficile = test: In vitro MIC, agar dilution; conditions: C. difficile
C. perfringens = test: microbe, parasite or virus in culture; conditions: Clostridium perfringens
H. influenzae = test: In vitro MIC, agar dilution; conditions: Haemophilus influenzae, H. influenzae, 18 isolates
M. pneumoniae = test: In vitro MIC, agar dilution; conditions: Mycoplasmoides pneumoniae; M. pneumoniae, 7 isolates; read-out: MIC Range
N. gonorrhoeae = test: In vitro MIC, agar dilution; conditions: Neisseria gonorrhoeae
H. pylori = test: In vitro MIC, agar dilution; conditions: Helicobacter pylori
M. avium = test: In vitro MIC, agar dilution; conditions: Mycobacterium avium

Compound: CN[C@@H]1CN(c2c(F)cn3c(=O)c(C(=O)O)cc(C4CC4)c3c2C)CC12CC2 [Example 1, 1-cyclopropyl-8-(7(S)-N-methylamino-5-azaspiro[2.4]heptyl)-7-fluoro-9-methyl-4-oxo-4H-guinolizine-3-carboxylic acid hydrochloride]
- MIC90 (S. aureus (CiproS)): 0.03 mg/L
- MIC50 (S. aureus (CiproS); S. aureus (CiproS), 21 isolates, read-out: MIC50): 0.015 mg/L
- MIC (S. aureus (CiproS); S. aureus (CiproS), 21 isolates, read-out: MIC Range): 0.015 to 0.03 mg/L
- MIC90 (S. aureus (CiproR)): 0.5 mg/L
- MIC50 (S. aureus (CiproR); S. aureus (CiproR), 25 isolates, read-out: MIC50): 0.5 mg/L
- MIC (S. aureus (CiproR); S. aureus (CiproR), 25 isolates, read-out: MIC Range): 0.015 to 0.5 mg/L
- MIC90 (S. epidermidis (CiproS)): 0.03 mg/L
- MIC50 (S. epidermidis (CiproS); S. epidermidis (CiproS), 23 isolates, read-out: MIC50): 0.015 mg/L
- MIC (S. epidermidis (CiproS); S. epidermidis (CiproS), 23 isolates, read-out: MIC Range): 0.015 to 0.03 mg/L
- MIC90 (S. epidermidis (CiproR)): 0.5 mg/L
- MIC (S. epidermidis (CiproR); read-out: MIC Range): 0.12 to 2 mg/L
- MIC50 (S. epidermidis (CiproR); S. epidermidis (CiproR), 11 isolates, read-out: MIC50): 0.25 mg/L
- MIC90 (S. pneumoniae (PenR)): 0.06 mg/L
- MIC50 (S. pneumoniae (PenR); S. pneumoniae (PenR), 25 isolates, read-out: MIC50): 0.06 mg/L
- MIC (S. pneumoniae (PenR); S. pneumoniae (PenR), 25 isolates, read-out: MIC Range): 0.03 to 0.06 mg/L
- MIC50 (S. pyogenes): 0.03 mg/L
- MIC90 (S. pyogenes): 0.06 mg/L
- MIC (S. pyogenes; S. pyogenes, 21 isolates, read-out: MIC Range): 0.03 to 0.06 mg/L
- MIC (E. faecium (CiproS); read-out: MIC Range): 0.25 to 1 mg/L
- MIC50 (E. faecium (CiproS); E. faecium (CiproS), 16 isolates, read-out: MIC50): 0.5 mg/L
- MIC90 (E. faecium (CiproS); E. faecium (CiproS), 16 isolates, read-out: MIC90): 1 mg/L
- MIC (E. faecium (CiproR)): 0.5 to 4 mg/L
- MIC90 (E. faecalis (VanS)): 0.25 mg/L
- MIC (E. faecalis (VanS); read-out: MIC Range): 0.12 to 0.25 mg/L
- MIC50 (E. faecalis (VanS); E. faecalis (VanS), 17 isolates, read-out: MIC50): 0.12 mg/L
- MIC50 (Enterococcus spp. (VanR); read-out: MIC50): 0.5 mg/L
- MIC90 (Enterococcus spp. (VanR); read-out: MIC90): 1 mg/L
- MIC (Enterococcus spp. (VanR); read-out: MIC Range): 0.06 to 4 mg/L
- MIC (E. coli): 0.004 to 0.015 mg/L
- MIC50 (E. coli; read-out: MIC50): 0.015 mg/L
- MIC90 (E. coli; read-out: MIC90): 0.015 mg/L
- MIC (Salmonella spp.): 0.004 to 0.12 mg/L
- MIC50 (Salmonella spp.; read-out: MIC50): 0.03 mg/L
- MIC90 (Salmonella spp.; read-out: MIC90): 0.03 mg/L
- MIC (Shigella spp.): 0.002 to 0.15 mg/L
- MIC90 (Klebsiella spp.; Klebsiella): 0.03 mg/L
- MIC50 (Klebsiella spp.; Klebsiella spp., 29 isolates, read-out: MIC50): 0.015 mg/L
- MIC (Klebsiella spp.; Klebsiella spp., 29 isolates, read-out: MIC Range): 0.002 to 0.12 mg/L
- MIC50 (C. freundii): 0.03 mg/L
- MIC90 (C. freundii): 0.25 mg/L
- MIC (C. freundii; C. freundii, 20 isolates, read-out: MIC Range): 0.015 to 0.25 mg/L
- MIC90 (P. mirabilis): 0.12 mg/L
- MIC (P. mirabilis; read-out: MIC Range): 0.03 to 0.25 mg/L
- MIC50 (P. mirabilis; P. mirabilis, 20 isolates, read-out: MIC50): 0.12 mg/L
- MIC90 (Providencia spp.; Providencia): 0.25 mg/L
- MIC50 (Providencia spp.; Providencia spp., 28 isolates, read-out: MIC50): 0.06 mg/L
- MIC (Providencia spp.; Providencia spp., 28 isolates, read-out: MIC Range): 0.015 to 1 mg/L
- MIC90 (Enterobacter spp.; Enterobacter): 0.03 mg/L
- MIC50 (Enterobacter spp.; Enterobacter spp., 35 isolates, read-out: MIC50): 0.015 mg/L
- MIC (Enterobacter spp.; Enterobacter spp., 35 isolates, read-out: MIC Range): 0.008 to 0.12 mg/L
- MIC50 (P. aeruginosa (CiproS); read-out: MIC50): 0.5 mg/L
- MIC90 (P. aeruginosa (CiproS); read-out: MIC90): 2 mg/L
- MIC (P. aeruginosa (CiproS); read-out: MIC Range): 0.12 to 4 mg/L
- MIC50 (P. aeruginosa (CiproR); Pseudomonas aeruginosa, P. aeruginosa (CiproR), 20 isolates, read-out: MIC50): 8 mg/L
- MIC90 (P. aeruginosa (CiproR); Pseudomonas aeruginosa, P. aeruginosa (CiproR), 20 isolates, read-out: MIC90): 16 mg/L
- MIC (P. aeruginosa (CiproR); Pseudomonas aeruginosa, P. aeruginosa (CiproR), 20 isolates, read-out: MIC Range): 4 to 32 mg/L
- MIC90 (P. aeruginosa (CiproR); ciprofloxacin resistant P. aeruginosa strains): 16 (g/mL
- MIC90 (B. fragilis; B. fragilis, 18 isolates): 0.12 mg/L
- MIC (B. fragilis; Bacteroides fragilis, read-out: MIC Range): 0.06 to 0.12 mg/L
- MIC50 (B. fragilis; Bacteroides fragilis, B. fragilis, 18 isolates, read-out: MIC50): 0.06 mg/L
- MIC90 (B. fragilis; Bacteroides fragilis, B. fragilis, read-out: MIC90): 0.12 mg/L
- MIC90 (C. difficile; 10 isolates): 0.5 mg/L
- MIC50 (C. difficile; Clostridioides difficile, 10 isolates, read-out: MIC50): 0.5 mg/L
- MIC (C. difficile; Clostridioides difficile, 10 isolates, read-out: MIC Range): 0.5 mg/L
- MIC90 (C. difficile; Clostridioides difficile, read-out: MIC90): 0.5 mg/L
- MIC50 (C. perfringens): 0.12 mg/L
- MIC90 (C. perfringens): 0.12 mg/L
- MIC90 (C. perfringens; C. perfringens, 13 isolates): 0.25 mg/L
- MIC (C. perfringens; read-out: MIC Range): 0.12 to 0.25 mg/L
- MIC50 (H. influenzae; read-out: MIC50): 0.004 mg/L
- MIC90 (H. influenzae; read-out: MIC90): 0.008 mg/L
- MIC (H. influenzae; read-out: MIC Range): 0.002 to 0.015 mg/L
- MIC (M. pneumoniae): 0.015 to 0.03 mg/L
- MIC90 (N. gonorrhoeae): 0.004 mg/L
- MIC50 (N. gonorrhoeae; N. gonorrhoeae, 12 isolates, read-out: MIC50): 0.002 mg/L
- MIC (N. gonorrhoeae; N. gonorrhoeae, 12 isolates, read-out: MIC Range): 0.001 to 0.015 mg/L
- MIC50 (H. pylori): 0.03 mg/L
- MIC90 (H. pylori): 0.03 mg/L
- MIC (H. pylori; H. pylori, 17 isolates, read-out: MIC Range): 0.008 to 0.03 mg/L
- MIC (M. avium; read-out: MIC Range): 0.25 to 8 mg/L
- MIC50 (M. avium; M. avium, 20 isolates, read-out: MIC50): 1 mg/L
- MIC90 (M. avium; M. avium, 20 isolates, read-out: MIC90): 4 mg/L
